For orientation: TGI means the concentration at which net growth stops. A higher TGI goes with less potent growth arrest. The term GI50 denotes the concentration giving 50% growth inhibition.

The text below walks through data of PubChem BioAssay (NCI).

Several values for one entry are separate records, joined by “and”; a condition that tells them apart may be missing. Identical values can stand only once.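 Where inhibition never reached the appropriate level, the endpoint shown equals the highest concentration tested. Otherwise, values were interpolated linearly from a five-concentration, 48-hour dose response in 96-well plates. GI50 marks 50% less growth. TGI is the concentration that stops growth completely.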 Where only a bound is given, the exact number is not on record here.

Some test systems named below: CCRF-CEM leukemia; HCT-116 colon; SNB-19 CNS; MOLT-4 leukemia; NCI-H226 lung; SR leukemia; UO-31 renal; HOP-92 NSCLC; IGROV1 ovarian; NCI-H23 lung.
What all share (assay): DTP human tumour cell line panel, 48 h

Take `COC1=C2C[C@@H](C)C[C@@H](OC)[C@@H](O)[C@H](C)/C=C(\C)[C@@H](OC(N)=O)[C@H](OC)/C=C\C=C(/C)C(=O)NC(=CC1=O)C2=O`: the TGI was 1.07 µM and 7.4 µM and 4.95 µM in the test on CCRF-CEM leukemia; 3.95 µM and 5.44 µM and 1.88 µM with HCT-116 colon; 28 µM and 26.5 µM and 10.4 µM in the test with SNB-19 CNS.

On to `CCC1CC(C)=CCN1S(=O)(=O)c1ccc(C)cc1` (stereo not drawn), for which the TGI in the test with CCRF-CEM leukemia is 75.7 µM; with HCT-116 colon, > 100 µM; in the test with MOLT-4 leukemia, 83.6 µM; in the test on NCI-H226 lung it was 80.7 µM; in the test on SNB-19 CNS, > 100 µM; with SR leukemia, 32.7 µM. The molecule also showed a TGI in the test on UO-31 renal of 66.6 µM.

On to `O=C(c1nc2ccc(Cl)cc2[nH]c1=O)C(O)c1ccc2c(c1)OCO2` (stereo not drawn), for which the TGI with CCRF-CEM leukemia, with HOP-92 NSCLC, with IGROV1 ovarian, in the test on MOLT-4 leukemia, in the test with NCI-H226 lung and in the test with NCI-H23 lung was > 100 µM throughout. The TGI in the test on UO-31 renal was > 100 µM.

Regarding `O=C(O)c1ccccc1-c1ccccc1C(=O)Nc1ccc2c(c1)[nH]c(=O)c1ccccc12`, the TGI in the test with CCRF-CEM leukemia, with HCT-116 colon, in the test on HOP-92 NSCLC, in the test on IGROV1 ovarian, with MOLT-4 leukemia and with NCI-H226 lung was > 100 µM in each case. Further, the TGI in the test on NCI-H23 lung, in the test on SNB-19 CNS and in the test with UO-31 renal was > 100 µM in each case.

As for `CC1=NC(C(C)C)C(=O)O1` (stereo not drawn), the total growth inhibition concentration (TGI) was > 100 µM in the test on CCRF-CEM leukemia; 34.1 µM with HCT-116 colon; > 100 µM with HOP-92 NSCLC; > 100 µM in the test with IGROV1 ovarian; > 100 µM in the test on MOLT-4 leukemia; > 100 µM in the test on NCI-H226 lung. In addition, the TGI in the test with NCI-H23 lung, with SNB-19 CNS and in the test on UO-31 renal was > 100 µM each time.

For the molecule `O=C1OC(c2ccccc2)=N/C1=C\c1cc(Cl)ccc1Cl`, the TGI with CCRF-CEM leukemia was 66.8 µM; in the test on HCT-116 colon, > 100 µM; in the test with HOP-92 NSCLC it was > 100 µM; in the test on IGROV1 ovarian, > 100 µM; in the test with MOLT-4 leukemia, 53.7 µM; in the test on NCI-H23 lung it was > 100 µM. For the same molecule, the TGI with SNB-19 CNS and with UO-31 renal was > 100 µM each time.

As for `N#CCCSC(=S)C1CCCC1=N` (stereo not drawn), the TGI in the test on HCT-116 colon, in the test with HOP-92 NSCLC, in the test with IGROV1 ovarian, in the test on MOLT-4 leukemia, in the test with NCI-H226 lung and with NCI-H23 lung was > 100 µM throughout. Further, the TGI in the test with SNB-19 CNS and in the test with UO-31 renal was > 100 µM throughout.

Turning to `CCOC(=O)NC(=O)c1cn(CCCOC(=O)NCCCCCCNC(=O)OCCCn2cc(C(=O)NC(=O)OCC)c(=O)[nH]c2=O)c(=O)[nH]c1=O`, the TGI is > 100 µM in the test with CCRF-CEM leukemia; > 100 µM in the test on HCT-116 colon; 45.6 µM in the test on HOP-92 NSCLC; > 100 µM in the test on IGROV1 ovarian; 90.3 µM with MOLT-4 leukemia; 77.6 µM in the test with SNB-19 CNS.

As to `COC(=O)CS(=O)c1ccccc1` (stereo not drawn), the TGI in the test with CCRF-CEM leukemia was 63.2 µM; in the test with HCT-116 colon, > 100 µM; in the test on HOP-92 NSCLC it was > 100 µM; with IGROV1 ovarian, 54 µM; in the test on MOLT-4 leukemia, 41.4 µM; with NCI-H23 lung, > 100 µM. The concentration for total growth inhibition (TGI) was > 100 µM with SNB-19 CNS and 22.1 µM with UO-31 renal.

For `N#C/C(=C1C=C/C(=N\O)C(Cl)=C\1)c1ccccc1`, the 50% growth inhibitory concentration (GI50) is 0.37 µM with CCRF-CEM leukemia; 0.382 µM with HCT-116 colon; 4.26 µM in the test on IGROV1 ovarian; 2.91 µM in the test with MOLT-4 leukemia; 3.13 µM in the test with NCI-H226 lung; 5.61 µM in the test on NCI-H23 lung. For the same molecule, the GI50 was 22.1 µM in the test on SNB-19 CNS, 1.8 µM in the test on SR leukemia and 1.74 µM in the test with UO-31 renal. In addition, the concentration for total growth inhibition (TGI) in the test with CCRF-CEM leukemia was found to be 2.37 µM; in the test on HCT-116 colon it was 11.4 µM; with IGROV1 ovarian, 23.7 µM; in the test on MOLT-4 leukemia, 9.02 µM; with NCI-H226 lung, 12.4 µM; with NCI-H23 lung it was 65.6 µM. For the same molecule, the total growth inhibition concentration (TGI) in the test on SNB-19 CNS is > 100 µM; with SR leukemia, 11.3 µM; in the test with UO-31 renal it was 17.1 µM.

`CCCC(=O)Nc1ccc2c(c1)CN1C(=O)c3ccccc3C1=N2`: the TGI with HCT-116 colon, in the test on HOP-92 NSCLC, in the test with IGROV1 ovarian, in the test on MOLT-4 leukemia, in the test on NCI-H226 lung and in the test with NCI-H23 lung was > 100 µM each time. The TGI in the test with SNB-19 CNS, with SR leukemia and in the test on UO-31 renal was > 100 µM in each case.

`O=C(O)c1cccc2cccc(C(=O)O)c12.[Hg]`: the GI50 is 6.92 µM with CCRF-CEM leukemia; 15.9 µM in the test with HCT-116 colon; 15.8 µM in the test with IGROV1 ovarian; 19.6 µM in the test on MOLT-4 leukemia; 21.1 µM with NCI-H226 lung; 15.7 µM with NCI-H23 lung. For the same molecule, the values for the GI50 in the test on SNB-19 CNS, in the test with SR leukemia and in the test on UO-31 renal were 15.9 µM, 4.05 µM and 20.7 µM, respectively. For the same molecule, the TGI was 29.2 µM with CCRF-CEM leukemia; 29.3 µM in the test with HCT-116 colon; 29.2 µM with IGROV1 ovarian; 42.7 µM with MOLT-4 leukemia; 40.7 µM with NCI-H226 lung; 29.9 µM in the test with NCI-H23 lung. The TGI was determined as 29.7 µM in the test with SNB-19 CNS, 23.5 µM in the test on SR leukemia and 35 µM in the test with UO-31 renal.

`O=C1NC(c2c(Cl)cccc2Cl)Nc2ccccc21` (stereo not drawn): the TGI in the test on HCT-116 colon, in the test on HOP-92 NSCLC, in the test with IGROV1 ovarian, with MOLT-4 leukemia, in the test on NCI-H226 lung and in the test on SNB-19 CNS was > 100 µM each time. Besides, in the test on UO-31 renal, the TGI is > 100 µM.

As for `Cc1ccc(NC2=C(Cl)C(=O)N(Cc3ccccc3)C2=O)cc1Cl`, the GI50 with CCRF-CEM leukemia was 4.23 µM; in the test with HCT-116 colon, 3.01 µM; in the test on MOLT-4 leukemia, 1.71 µM; in the test with NCI-H226 lung, 0.144 µM; with NCI-H23 lung, 4.13 µM; in the test on SNB-19 CNS it was 11.2 µM. The GI50 with SR leukemia is 1.19 µM; with UO-31 renal, 3.33 µM. In addition, the TGI with CCRF-CEM leukemia was 19.4 µM; in the test with HCT-116 colon, 12.5 µM; in the test with MOLT-4 leukemia, 6.81 µM; in the test with NCI-H226 lung it was 3.83 µM; in the test on NCI-H23 lung it was 14.6 µM; in the test on SNB-19 CNS, 34.7 µM. For the same molecule, the concentration for total growth inhibition (TGI) in the test on SR leukemia turned out to be 5.75 µM; in the test with UO-31 renal, 15.9 µM.
